Laboratory results reported in publication PMC6018958 (ACS Omega, 2017).

Key:
EGFR^L858R/T790M [1] = biological target: T1, EGFR^L858R/T790M (Homo sapiens, UniProt P00533, L858R/T790M); assay: biochemical
EGFR^L858R [2] = biological target: T2, EGFR^L858R (Homo sapiens, UniProt P00533, L858R); assay: biochemical
EGFR^WT [3] = biological target: T3, EGFR^WT (Homo sapiens, UniProt P00533); assay: biochemical
EGFR^L858R/T790M [4] = biological target: T1, EGFR^L858R/T790M; assay: Kinetic characterization; assay type: biochemical
EGFR^L858R/T790M [5] = biological target: T1, EGFR^L858R/T790M; assay: SelectScreen kinase profiling
[6] = system: kinases that harbor a cysteine comparable to C797 in the hinge region; assay: SelectScreen kinase profiling; assay type: biochemical; settings: compound concentration 1 μM; almost all cysteine-containing kinases (Table S1)
EGFR^T790M = EGFR^T790M (Homo sapiens, UniProt P00533, T790M); assay: SelectScreen kinase profiling; assay type: biochemical
EGFR^T790M, sequence (P00533 25-1210 T790M): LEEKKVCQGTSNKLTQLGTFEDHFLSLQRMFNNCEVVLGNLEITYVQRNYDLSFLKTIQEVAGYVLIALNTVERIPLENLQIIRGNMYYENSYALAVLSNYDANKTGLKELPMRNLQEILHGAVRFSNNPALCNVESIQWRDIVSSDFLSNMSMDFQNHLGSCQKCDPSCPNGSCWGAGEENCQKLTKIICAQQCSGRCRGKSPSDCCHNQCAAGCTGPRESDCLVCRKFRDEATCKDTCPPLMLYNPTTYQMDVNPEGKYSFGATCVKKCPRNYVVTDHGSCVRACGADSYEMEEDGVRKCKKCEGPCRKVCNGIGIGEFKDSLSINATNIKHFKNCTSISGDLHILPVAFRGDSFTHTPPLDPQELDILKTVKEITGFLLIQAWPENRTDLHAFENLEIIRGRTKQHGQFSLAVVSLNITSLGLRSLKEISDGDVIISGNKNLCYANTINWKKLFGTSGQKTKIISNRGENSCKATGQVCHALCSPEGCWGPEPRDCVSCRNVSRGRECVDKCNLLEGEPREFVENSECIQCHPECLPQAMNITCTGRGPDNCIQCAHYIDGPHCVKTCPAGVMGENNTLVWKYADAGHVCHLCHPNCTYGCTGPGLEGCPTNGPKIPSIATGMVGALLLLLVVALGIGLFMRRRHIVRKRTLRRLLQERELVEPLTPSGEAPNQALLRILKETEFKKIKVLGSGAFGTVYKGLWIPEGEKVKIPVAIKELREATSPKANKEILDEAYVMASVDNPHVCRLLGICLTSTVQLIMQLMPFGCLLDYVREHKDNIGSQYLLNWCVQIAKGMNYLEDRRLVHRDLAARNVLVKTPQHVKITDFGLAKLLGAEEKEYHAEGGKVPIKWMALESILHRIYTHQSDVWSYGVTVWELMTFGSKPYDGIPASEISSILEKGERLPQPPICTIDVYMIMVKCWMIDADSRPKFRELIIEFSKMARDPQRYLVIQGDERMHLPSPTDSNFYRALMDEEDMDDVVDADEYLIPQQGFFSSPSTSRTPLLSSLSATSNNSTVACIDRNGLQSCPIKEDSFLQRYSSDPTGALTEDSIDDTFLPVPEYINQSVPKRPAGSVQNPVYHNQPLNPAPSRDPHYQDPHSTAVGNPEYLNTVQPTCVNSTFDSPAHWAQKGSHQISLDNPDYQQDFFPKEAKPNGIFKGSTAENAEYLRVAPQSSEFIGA

EGFR^WT [7] = biological target: T3, EGFR^WT; assay: Kinetic characterization; assay type: biochemical
EGFR^L858R [8] = biological target: T2, EGFR^L858R; assay: Kinetic characterization; assay type: biochemical

T2 sequence (P00533 25-1210 L858R): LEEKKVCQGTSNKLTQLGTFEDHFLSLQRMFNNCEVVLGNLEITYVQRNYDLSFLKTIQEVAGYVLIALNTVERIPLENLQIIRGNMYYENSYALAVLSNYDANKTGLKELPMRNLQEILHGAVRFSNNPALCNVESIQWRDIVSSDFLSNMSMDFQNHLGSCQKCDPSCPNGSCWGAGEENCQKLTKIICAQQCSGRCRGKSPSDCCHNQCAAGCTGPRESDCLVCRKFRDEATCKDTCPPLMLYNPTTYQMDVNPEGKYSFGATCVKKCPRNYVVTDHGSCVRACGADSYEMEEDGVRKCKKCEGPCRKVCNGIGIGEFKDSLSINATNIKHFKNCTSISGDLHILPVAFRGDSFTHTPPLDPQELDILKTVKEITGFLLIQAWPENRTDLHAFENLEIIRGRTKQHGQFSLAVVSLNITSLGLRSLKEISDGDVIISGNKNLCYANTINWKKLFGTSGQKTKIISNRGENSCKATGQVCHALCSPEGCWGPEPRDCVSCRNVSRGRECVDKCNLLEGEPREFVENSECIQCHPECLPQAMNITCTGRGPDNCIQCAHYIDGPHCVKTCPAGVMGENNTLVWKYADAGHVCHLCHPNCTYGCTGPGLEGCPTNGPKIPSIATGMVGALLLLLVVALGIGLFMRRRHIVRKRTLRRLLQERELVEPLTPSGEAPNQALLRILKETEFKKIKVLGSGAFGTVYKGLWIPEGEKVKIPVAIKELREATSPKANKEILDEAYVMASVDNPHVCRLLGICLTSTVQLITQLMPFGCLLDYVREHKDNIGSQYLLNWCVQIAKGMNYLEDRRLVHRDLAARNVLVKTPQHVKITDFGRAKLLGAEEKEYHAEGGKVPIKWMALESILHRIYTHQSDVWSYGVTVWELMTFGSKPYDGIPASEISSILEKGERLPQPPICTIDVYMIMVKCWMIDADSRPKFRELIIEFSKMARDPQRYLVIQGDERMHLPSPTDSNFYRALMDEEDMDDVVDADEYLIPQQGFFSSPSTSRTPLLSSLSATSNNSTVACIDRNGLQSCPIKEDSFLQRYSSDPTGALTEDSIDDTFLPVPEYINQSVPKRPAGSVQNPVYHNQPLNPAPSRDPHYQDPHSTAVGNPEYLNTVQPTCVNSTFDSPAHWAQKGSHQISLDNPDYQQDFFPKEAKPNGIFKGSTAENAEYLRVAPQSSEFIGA
T3 sequence (P00533 25-1210): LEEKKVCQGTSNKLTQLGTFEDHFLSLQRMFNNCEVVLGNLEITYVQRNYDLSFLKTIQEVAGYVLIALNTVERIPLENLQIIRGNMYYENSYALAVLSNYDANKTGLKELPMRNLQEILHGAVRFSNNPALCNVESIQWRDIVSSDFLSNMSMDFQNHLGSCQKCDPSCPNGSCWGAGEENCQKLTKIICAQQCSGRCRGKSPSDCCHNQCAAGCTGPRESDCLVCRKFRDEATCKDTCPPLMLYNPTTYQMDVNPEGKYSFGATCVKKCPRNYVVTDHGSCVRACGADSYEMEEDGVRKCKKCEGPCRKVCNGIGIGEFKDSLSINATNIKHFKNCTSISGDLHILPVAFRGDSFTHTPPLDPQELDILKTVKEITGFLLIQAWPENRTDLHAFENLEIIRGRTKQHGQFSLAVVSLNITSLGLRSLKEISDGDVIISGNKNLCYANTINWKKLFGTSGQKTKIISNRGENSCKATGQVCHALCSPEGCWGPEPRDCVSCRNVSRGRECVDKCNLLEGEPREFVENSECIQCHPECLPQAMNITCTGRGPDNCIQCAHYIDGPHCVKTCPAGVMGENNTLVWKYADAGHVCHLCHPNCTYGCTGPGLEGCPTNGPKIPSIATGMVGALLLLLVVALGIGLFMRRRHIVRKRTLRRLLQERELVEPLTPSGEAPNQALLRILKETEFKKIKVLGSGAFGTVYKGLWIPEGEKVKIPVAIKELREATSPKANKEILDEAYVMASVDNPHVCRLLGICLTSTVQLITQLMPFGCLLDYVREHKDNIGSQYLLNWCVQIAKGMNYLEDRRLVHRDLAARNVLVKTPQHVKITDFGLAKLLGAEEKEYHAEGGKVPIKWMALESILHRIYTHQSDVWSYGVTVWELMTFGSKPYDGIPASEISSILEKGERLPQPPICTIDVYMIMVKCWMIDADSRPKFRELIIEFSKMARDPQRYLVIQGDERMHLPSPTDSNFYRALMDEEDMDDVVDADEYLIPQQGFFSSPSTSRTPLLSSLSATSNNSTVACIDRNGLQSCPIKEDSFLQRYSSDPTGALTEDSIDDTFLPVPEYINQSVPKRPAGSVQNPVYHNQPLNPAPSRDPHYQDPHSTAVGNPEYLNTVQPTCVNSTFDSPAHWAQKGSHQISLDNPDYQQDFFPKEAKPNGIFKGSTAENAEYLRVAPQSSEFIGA
T1 sequence (P00533 25-1210 T790M/L858R): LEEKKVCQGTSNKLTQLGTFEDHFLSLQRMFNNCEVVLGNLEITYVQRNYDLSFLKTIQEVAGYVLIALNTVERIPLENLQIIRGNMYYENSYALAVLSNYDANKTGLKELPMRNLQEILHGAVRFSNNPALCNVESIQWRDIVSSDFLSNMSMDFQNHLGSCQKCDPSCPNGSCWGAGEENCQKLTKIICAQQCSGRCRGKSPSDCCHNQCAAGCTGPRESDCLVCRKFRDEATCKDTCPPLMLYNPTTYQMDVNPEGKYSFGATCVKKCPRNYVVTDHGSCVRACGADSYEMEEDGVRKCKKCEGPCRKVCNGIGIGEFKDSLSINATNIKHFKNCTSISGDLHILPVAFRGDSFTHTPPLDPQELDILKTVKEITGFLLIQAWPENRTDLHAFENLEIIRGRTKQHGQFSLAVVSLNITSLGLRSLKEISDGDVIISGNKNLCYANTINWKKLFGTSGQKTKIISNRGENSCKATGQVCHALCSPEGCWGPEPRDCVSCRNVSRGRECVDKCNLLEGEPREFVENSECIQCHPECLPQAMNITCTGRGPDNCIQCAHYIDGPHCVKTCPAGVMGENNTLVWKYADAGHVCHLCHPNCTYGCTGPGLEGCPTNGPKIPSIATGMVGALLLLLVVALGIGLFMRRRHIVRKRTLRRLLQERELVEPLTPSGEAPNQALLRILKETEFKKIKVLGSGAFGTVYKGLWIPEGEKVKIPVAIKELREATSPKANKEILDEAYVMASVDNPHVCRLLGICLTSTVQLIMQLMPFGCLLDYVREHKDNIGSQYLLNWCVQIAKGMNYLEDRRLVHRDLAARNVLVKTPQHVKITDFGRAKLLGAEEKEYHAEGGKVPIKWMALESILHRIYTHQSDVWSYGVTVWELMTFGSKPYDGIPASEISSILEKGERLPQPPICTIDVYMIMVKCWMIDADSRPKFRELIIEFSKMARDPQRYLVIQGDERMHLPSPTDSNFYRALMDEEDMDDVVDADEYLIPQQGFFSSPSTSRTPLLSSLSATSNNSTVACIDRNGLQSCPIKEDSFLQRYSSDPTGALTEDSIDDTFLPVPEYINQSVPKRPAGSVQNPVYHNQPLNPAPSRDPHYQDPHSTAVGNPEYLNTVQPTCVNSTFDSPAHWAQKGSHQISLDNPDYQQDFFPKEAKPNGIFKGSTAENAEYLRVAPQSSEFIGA

Compound	IC50 (EGFR^L858R/T790M [1])	IC50 (EGFR^L858R [2])	IC50 (EGFR^WT [3])	Ki (EGFR^L858R/T790M [4])	kinact (EGFR^L858R/T790M [4])	kinact/KI (EGFR^L858R/T790M [4])	inhibition at 1 µM (EGFR^L858R/T790M [5])	inhibition [6]	inhibition at 1 µM (EGFR^T790M)	Ki (EGFR^WT [7])	kinact (EGFR^WT [7])	kinact/KI (EGFR^WT [7])	Ki (EGFR^L858R [8])	kinact (EGFR^L858R [8])	kinact/KI (EGFR^L858R [8])
N#C/C(=C\C1CC1)C(=O)N1CCC[C@@H](n2nc(-c3cccc(C(F)(F)F)c3)c3c(N)ncnc32)C1 [1b, (R,E)-2-(3-(4-Amino-3-(3-(trifluoromethyl)phenyl)-1H-pyrazolo[3,4-d]pyrimidin-1-yl)piperidine-1-carbonyl)-3-cyclopropylacrylonitrile]	2540 ± 420 nM	385 ± 207 nM	> 10000 nM	–	–	–	–	–	–	–	–	–	–	–	–
Cn1cc(-c2nn([C@@H]3CCCN(C(=O)/C(C#N)=C/C4CC4)C3)c3ncnc(N)c23)c2ccccc21 [1e, (R,E)-2-(3-(4-Amino-3-(1-methyl-1H-indol-3-yl)-1H-pyrazolo[3,4-d]pyrimidin-1-yl)piperidine-1-carbonyl)-3-cyclopropylacrylonitrile]	213 ± 49 nM	85 ± 34 nM	338 ± 69 nM	83 ± 10 nM	0.00217 s⁻¹	360000 ± 20000 M⁻¹ s⁻¹	–	–	–	1670 ± 450 nM	0.00283 s⁻¹	10000 ± 10000 M⁻¹ s⁻¹	79 ± 9 nM	0.002 s⁻¹	260000 ± 70000 M⁻¹ s⁻¹
N#C/C(=C\C1CC1)C(=O)N1CCC[C@@H](n2nc(-c3ccccc3)c3c(N)ncnc32)C1 [1a, (R,E)-2-(3-(4-Amino-3-phenyl-1H-pyrazolo[3,4-d]pyrimidin-1-yl)piperidine-1-carbonyl)-3-cyclopropylacrylonitrile]	4540 ± 543 nM	229 ± 62 nM	5380 ± 3890 nM	–	–	–	–	–	–	–	–	–	–	–	–

The next molecules have a lower IC50 (EGFR^L858R/T790M [1]) than those just listed; values first:

IC50 (EGFR^L858R/T790M [1])	IC50 (EGFR^L858R [2])	IC50 (EGFR^WT [3])	Ki (EGFR^L858R/T790M [4])	kinact (EGFR^L858R/T790M [4])	kinact/KI (EGFR^L858R/T790M [4])	inhibition at 1 µM (EGFR^L858R/T790M [5])	inhibition [6]	inhibition at 1 µM (EGFR^T790M)	Ki (EGFR^WT [7])	kinact (EGFR^WT [7])	kinact/KI (EGFR^WT [7])	Ki (EGFR^L858R [8])	kinact (EGFR^L858R [8])	kinact/KI (EGFR^L858R [8])	Compound
20 ± 13 nM	10 ± 8 nM	96 ± 26 nM	51 ± 2 nM	0.00283 s⁻¹	50000 ± 20000 M⁻¹ s⁻¹	~90%	more than 50%	~90%	265 ± 1 nM	0.000667 s⁻¹	10000 ± 10000 M⁻¹ s⁻¹	37 ± 6 nM	0.003 s⁻¹	200000 ± 10000 M⁻¹ s⁻¹	N#C/C(=C\C1CC1)C(=O)N1CCC[C@@H](n2nc(-c3cnc4[nH]ccc4c3)c3c(N)ncnc32)C1 [1d, (R,E)-2-(3-(4-Amino-3-(1H-pyrrolo[2,3-b]pyridin-5-yl)-1H-pyrazolo[3,4-d]pyrimidin-1-yl)piperidine-1-carbonyl)-3-cyclopropylacrylonitrile]
80 ± 51 nM	–	102 ± 75 nM	15 ± 3 nM	0.00183 s⁻¹	730000 ± 160000 M⁻¹ s⁻¹	–	–	–	64 ± 1 nM	0.0005 s⁻¹	10000 ± 10000 M⁻¹ s⁻¹	14 ± 2 nM	0.000667 s⁻¹	680000 ± 250000 M⁻¹ s⁻¹	N#C/C(=C\C1CC1)C(=O)N1CCC[C@@H](n2nc(-c3cccc4ccccc34)c3c(N)ncnc32)C1 [1c, (R,E)-2-(3-(4-Amino-3-(naphthalen-1-yl)-1H-pyrazolo[3,4-d]pyrimidin-1-yl)piperidine-1-carbonyl)-3-cyclopropylacrylonitrile]
